Reference: publication PMC10058310 (Science Advances, 2023)

Key:
[1] = system: recombinant SARS2 encoding WT M^pro; experiment: microbe, parasite or virus in culture; format: cell-based; settings: A549-hACE2 cells; for IC50: Severe acute respiratory syndrome coronavirus 2, replication-competent SARS-CoV-2, M^pro WT, 72 hpi, read-out: IC50 (95% CI)
[2] = system: recombinant SARS2 encoding ∆P168 M^pro; experiment: microbe, parasite or virus in culture; format: cell-based; settings: Severe acute respiratory syndrome coronavirus 2; read-out: IC50 (95% CI)
SARS2 M^pro ∆P168 = SARS2 M^pro ∆P168 (Severe acute respiratory syndrome coronavirus 2, UniProt P0DTD1, DEL3431-3431); format: cell-based, SARS-CoV-2

Structure (SMILES)	IC50 [1]	IC50 [2]	effect on dose-response curve versus WT M^pro (SARS2 M^pro ∆P168)	Fold change in antiviral EC50 ([1]; M^pro WT virus (reference))
CC(C)(C)[C@H](NC(=O)C(F)(F)F)C(=O)N1C[C@H]2[C@@H]([C@H]1C(=O)N[C@H](C#N)C[C@@H]1CCNC1=O)C2(C)C [Nirmatrelvir, nirmatrelvir]	4.4 nM	7 nM	–	–
CC(C)(C)NC(=O)N[C@H](C(=O)N1C[C@H]2[C@@H]([C@H]1C(=O)NC(CC1CCC1)C(=O)C(N)=O)C2(C)C)C(C)(C)C (some centres unmarked) [boceprevir]	–	–	no detectable effect	–
CCC(CC)COC(=O)[C@H](C)N[P@](=O)(OC[C@H]1O[C@@](C#N)(c2ccc3c(N)ncnn23)[C@H](O)[C@@H]1O)Oc1ccccc1 [Remdesivir, remdesivir]	1200 nM	1100 nM	–	1.0 fold
Cn1cnc(Cn2c(=O)[nH]/c(=N\c3cc4cn(C)nc4cc3Cl)n(Cc3cc(F)c(F)cc3F)c2=O)n1 [Ensitrelvir, ensitrelvir]	4.3 nM	3.6 nM	–	–
